In patent US9872917B2, “Anion-paired cationic metallocene-containing compounds and polymers as antimicrobial agents” (University of South Carolina, priority 2013, dated 2018):

System: CA-MRSA cells
Assay: Broth dilution method, growth followed at OD600
Assay type: cell-based, Staphylococcus aureus
Conditions: stock solutions 20 μg/ml penicillin G, 20 μg/ml polymer, 40 μg/ml loaded polymer; 37° C., OD600 every 2 hours
Protocol: Broth dilution method was used to characterize the inhibition of penicillin G/polymer complex against CA-MRSA cells. Penicillin G, cationic cobaltocenium polymer or penicillin G/polymer complex was dissolved in water. Concentrations of the above solutions were at 20 μg/ml for penicillin G, 20 μg/ml for cationic polymer and 40 μg/ml penicillin G loaded polymer (20 μg/ml penicillin G and 20 μg/ml polymer). Solutions without polymers were prepared as the control samples. CA-MRSA cells were grown in tryptic soy broth (TSB) medium at 37° C. overnight. All bacteria were grown to an optical density of 1 (OD600=1). Then, the cells were diluted with TSB to give a bacterial assay stock with OD600=0.04. CA-MRSA cells ([…]) were added to each well in a 96 well assay plate.

With `CC1(C)S[C@@H]2[C@H](NC(=O)Cc3ccccc3)C(=O)N2[C@H]1C(=O)O` [penicillin G, benzyl penicillin] the “inhibition of CA-MRSA growth (OD600)” value was “some inhibition”.
